According to the NIST ThermoML archive (doi:10.1021/je6005423):

Columns and labels:
[1] = Molar enthalpy of transition or fusion; details: Crystal
[2] = Crystal
[3] = molar heat capacity at constant pressure; details: 101.33 kPa, Crystal

CN(C)c1ccncc1 [4-(dimethylamino)pyridine]
Details	Molar enthalpy of transition or fusion [kcal/mol]	Normal melting temperature [°C]	molar heat capacity at constant pressure [J/K/mol]
[1], Adiabatic calorimetry	5.17	–	–
[1], DSC	5.17	–	–
[2], Adiabatic calorimetry	–	113.94	–
[2], DTA	–	114.0	–
[3], 80.03 K	–	–	64.47
[3], 83.52 K	–	–	66.81
[3], 86.44 K	–	–	69.05
[3], 89.41 K	–	–	71.03
[3], 92.44 K	–	–	72.95
[3], 95.51 K	–	–	74.9
[3], 98.51 K	–	–	76.86
[3], 101.43 K	–	–	78.68
[3], 104.42 K	–	–	80.51
[3], 107.48 K	–	–	82.3
[3], 110.47 K	–	–	83.92
[3], 113.41 K	–	–	85.67
[3], 116.41 K	–	–	87.31
[3], 119.47 K	–	–	89.01
[3], 122.49 K	–	–	90.57
[3], 125.46 K	–	–	92.11
[3], 128.49 K	–	–	93.69
[3], 131.59 K	–	–	95.38
[3], 134.65 K	–	–	96.78
[3], 137.66 K	–	–	98.3
[3], 140.65 K	–	–	99.76
[3], 143.69 K	–	–	101.22
[3], 146.8 K	–	–	102.9
[3], 149.88 K	–	–	104.47
[3], 152.93 K	–	–	105.97
[3], 155.94 K	–	–	107.42
[3], 158.93 K	–	–	108.62
[3], 161.98 K	–	–	109.91
[3], 165.1 K	–	–	111.54
[3], 168.19 K	–	–	113.06
[3], 171.25 K	–	–	114.49
[3], 174.28 K	–	–	115.97
[3], 177.29 K	–	–	117.2
[3], 180.27 K	–	–	118.57
[3], 183.32 K	–	–	120.19
[3], 186.44 K	–	–	121.88
[3], 189.53 K	–	–	123.23
[3], 192.6 K	–	–	124.43
[3], 195.65 K	–	–	125.95
[3], 198.67 K	–	–	127.3
[3], 201.68 K	–	–	128.65
[3], 204.66 K	–	–	130
[3], 207.72 K	–	–	131.46
[3], 210.84 K	–	–	133.09
[3], 213.94 K	–	–	134.61
[3], 217.02 K	–	–	135.82
[3], 220.08 K	–	–	139.06
[3], 223.12 K	–	–	141.26
[3], 226.12 K	–	–	143.32
[3], 229.09 K	–	–	145.3
[3], 232.06 K	–	–	146.84
[3], 235.11 K	–	–	149.01
[3], 238.15 K	–	–	150.96
[3], 241.18 K	–	–	152.05
[3], 244.19 K	–	–	153.79
[3], 247.18 K	–	–	155.15
[3], 250.16 K	–	–	156.56
[3], 253.13 K	–	–	157.38
[3], 256.16 K	–	–	158.57
[3], 259.24 K	–	–	159.8
[3], 262.29 K	–	–	161.74
[3], 265.4 K	–	–	163.21
[3], 268.51 K	–	–	165.52
[3], 271.55 K	–	–	167.5
[3], 274.51 K	–	–	168.7
[3], 277.42 K	–	–	169.84
[3], 280.39 K	–	–	171.69
[3], 283.34 K	–	–	173.55
[3], 286.27 K	–	–	175.43
